Experimental data reported in ChEMBL document CHEMBL5107949, “Design, synthesis, and antibacterial activity of N-(trifluoromethyl)phenyl substituted pyrazole derivatives” (RSC Med Chem, 2021).
≈ marks a conversion by molar mass, not a printed value.

Legend:
Staphylococcus aureus [1] = assay: Antibacterial activity against antibiotic resistant Staphylococcus aureus ATCC 33592 assessed as inhibition of bacterial growth by CLSI protocol based broth microdilution method; type: functional
Staphylococcus aureus [2] = assay: Antibacterial activity against antibiotic resistant Staphylococcus aureus BAA-2312 assessed as inhibition of bacterial growth by CLSI protocol based broth microdilution method; type: functional
Bacillus subtilis = assay: Antibacterial activity against antibiotic resistant Bacillus subtilis ATCC 6623 assessed as inhibition of bacterial growth by CLSI protocol based broth microdilution method; type: functional
Enterococcus faecalis [3] = assay: Antibacterial activity against antibiotic susceptible Enterococcus faecalis ATCC 29212 assessed as inhibition of bacterial growth by CLSI protocol based broth microdilution method; type: functional
Enterococcus faecium [4] = assay: Antibacterial activity against vancomycin resistant Enterococcus faecium ATCC 700221 assessed as inhibition of bacterial growth by CLSI protocol based broth microdilution method; type: functional
Staphylococcus aureus [5] = assay: Inhibition of biofilm formation in Staphylococcus aureus ATCC 25923 at 3.125 to 12.5 ug/ml incubated for 24 hrs by Calgary biofilm device assay; type: functional, organism-based; conditions: dose 3.125-12.5 µg/ml, DDE = dose-dependent effect
Staphylococcus aureus [6] = assay: Anti-biofilm activity against Staphylococcus aureus ATCC 25923 assessed as eradication of biofilm formation incubated for 24 hrs by Calgary biofilm device assay; type: functional; conditions: Staphylococcus aureus, ATCC 25923
Staphylococcus aureus [7] = assay: Bactericidal activity against Staphylococcus aureus ATCC 700699 persisters assessed as log reduction in colony forming unit at 16 times MIC after 4 hrs by colony counting method; type: functional
Enterococcus faecalis [8] = assay: Antibacterial activity against Enterococcus faecalis clinical isolate 1100440 assessed as inhibition of bacterial growth by CLSI protocol based broth microdilution method; type: functional
Enterococcus faecium [9] = assay: Antibacterial activity against Enterococcus faecium clinical isolate 1091282 assessed as inhibition of bacterial growth by CLSI protocol based broth microdilution method; type: functional
Staphylococcus aureus [10] = assay: Antibacterial activity against Staphylococcus aureus clinical isolate 1088064 assessed as inhibition of bacterial growth by CLSI protocol based broth microdilution method; type: functional
Staphylococcus aureus [11] = assay: Antibacterial activity against Staphylococcus aureus ATCC 29213 assessed as inhibition of bacterial growth by CLSI protocol based broth microdilution method; type: functional
Staphylococcus aureus [12] = assay: Inhibition of RNA synthesis in Staphylococcus aureus ATCC 29213 at MIC preincubated for 30 mins followed by [3H]-uridine and measured after 30 mins by [3H]-uridine incorporation based beta scintillation counter analysis; type: functional; conditions: time 60 min; 1 h
Staphylococcus aureus [13] = assay: Inhibition of protein synthesis in Staphylococcus aureus ATCC 29213 at 0.5 times MIC preincubated for 30 mins followed by [3H]-leucine and measured after 40 mins by [3H]-leucine incorporation based beta scintillation counter analysis; type: functional; conditions: time 70.0 min
Staphylococcus aureus [14] = assay: Inhibition of protein synthesis in Staphylococcus aureus ATCC 29213 at MIC preincubated for 30 mins followed by [3H]-leucine and measured after 40 mins by [3H]-leucine incorporation based beta scintillation counter analysis; type: functional; conditions: time 70.0 min

O=C(O)c1ccc(-c2nn(-c3ccc(C(F)(F)F)cc3)cc2CNc2ccc(Br)c(C(F)(F)F)c2)cc1 was tested, and the MIC (Staphylococcus aureus [1]) was 0.78 µg/mL (≈ 1.33 µM), the MIC (Staphylococcus aureus [2]) was 1.56 µg/mL (≈ 2.67 µM) and the MIC (Bacillus subtilis) was 0.39 µg/mL (≈ 0.667 µM). For the same compound, the MIC (Enterococcus faecalis [3]) was 3.12 µg/mL (≈ 5.35 µM), the MIC (Enterococcus faecium [4]) was 0.78 µg/mL (≈ 1.33 µM) and the inhibition (Staphylococcus aureus [5]) was “Dde”. For the same compound, the MBEC (Staphylococcus aureus [6]) was 6.25 µg/mL, the “log(activity)” value (Staphylococcus aureus [7]) was >2 and the MIC (Enterococcus faecalis [8]) was 8 µg/mL (≈ 13.7 µM). For the same compound, the MIC (Enterococcus faecium [9]) was 8 µg/mL (≈ 13.7 µM), the MIC (Staphylococcus aureus [10]) was 4 µg/mL (≈ 6.85 µM) and the MIC (Staphylococcus aureus [11]) was 1 µg/mL (≈ 1.71 µM). The “inhibition (INH)” value (Staphylococcus aureus [12]) was 75.5%, the inhibition (Staphylococcus aureus [13]) was 53.3% and the inhibition (Staphylococcus aureus [14]) was 86.1%.
